Source: article PMC6044556 (ACS Omega, 2017)

What was measured:
[1] = GABA–CTP BBB penetration experiment: GABA in plasma of mice by LC–MS; assay type: in vivo, mice (Kunming); conditions: male mice, one bolus intravenous injection via tail vein (GABA 50 mg/kg, GABA–CPP 10 mg/kg)
[2] = system: mice; test: Behavior of the mice after injection; assay type: in vivo, mice (Kunming); conditions: intravenous injection, GABA 50 mg/kg or GABA–CPP 10 mg/kg, symptom with GABA–CPP appeared a bit worse

NCCCC(=O)O [GABA, γ-aminobutyric acid]
GABA concentration in plasma within 2 min after injection [1]: 7985 ng/mL
GABA concentration in plasma within 1 h after injection [1]: 141 ng/mL
behavior of the mice after injection [2]: quiet and sleepy behavior
